In the NIST ThermoML archive (doi:10.1021/je060353z):
Numbers after ± are expanded uncertainties.

Experiment: xn = mol fraction of the nth substance listed
Conditions: 101 kPa, Liquid

Clc1ccccc1 [chlorobenzene] + CCCCCCCCCCO
Conditions | mass density [kg/m3] | speed of sound [m/s] | viscosity [mPa·s]
298.15 K, x1 = 0.1664 | 852.913 ± 0.39 | 1362.6 ± 1.5 | 7.762 ± 0.071
298.15 K, x1 = 0.322 | 881.587 ± 0.35 | 1344.4 ± 1.4 | 5.123 ± 0.049
298.15 K, x1 = 0.4609 | 911.692 ± 0.3 | 1327 ± 1.4 | 3.484 ± 0.036
298.15 K, x1 = 0.5731 | 939.879 ± 0.26 | 1311.7 ± 1.4 | 2.539 ± 0.028
298.15 K, x1 = 0.6619 | 965.236 ± 0.23 | 1299.5 ± 1.4 | 1.967 ± 0.024
298.15 K, x1 = 0.7456 | 992.108 ± 0.19 | 1288.5 ± 1.4 | 1.517 ± 0.02
298.15 K, x1 = 0.8174 | 1017.95 ± 0.21 | 1280.1 ± 1.4 | 1.243 ± 0.018
298.15 K, x1 = 0.8857 | 1045.67 ± 0.26 | 1273.3 ± 1.4 | 1.017 ± 0.016
298.15 K, x1 = 0.9426 | 1071.48 ± 0.3 | 1269.5 ± 1.4 | 0.865 ± 0.015
298.15 K, x1 = 1 | 1100.67 ± 0.34 | 1268 ± 1.4 | 0.757 ± 0.014
303.15 K, x1 = 0.1664 | 848.821 ± 0.4 | 1343.9 ± 1.4 | 6.542 ± 0.061
303.15 K, x1 = 0.322 | 877.329 ± 0.35 | 1325 ± 1.4 | 4.407 ± 0.043
303.15 K, x1 = 0.4609 | 907.247 ± 0.31 | 1307.2 ± 1.4 | 3.058 ± 0.032
303.15 K, x1 = 0.5731 | 935.236 ± 0.27 | 1292.4 ± 1.4 | 2.262 ± 0.026
303.15 K, x1 = 0.6619 | 960.447 ± 0.23 | 1280.9 ± 1.4 | 1.771 ± 0.022
303.15 K, x1 = 0.7456 | 987.138 ± 0.2 | 1270.5 ± 1.4 | 1.388 ± 0.019
303.15 K, x1 = 0.8174 | 1012.83 ± 0.2 | 1262.6 ± 1.4 | 1.147 ± 0.017
303.15 K, x1 = 0.8857 | 1040.32 ± 0.25 | 1256.1 ± 1.4 | 0.949 ± 0.016
303.15 K, x1 = 0.9426 | 1065.89 ± 0.29 | 1252.2 ± 1.4 | 0.808 ± 0.015
303.15 K, x1 = 1 | 1095.1 ± 0.33 | 1249.4 ± 1.4 | 0.714 ± 0.014
308.15 K, x1 = 0.1664 | 845.166 ± 0.4 | 1326 ± 1.4 | 5.554 ± 0.053
308.15 K, x1 = 0.322 | 873.388 ± 0.36 | 1306.4 ± 1.4 | 3.814 ± 0.039
308.15 K, x1 = 0.4609 | 903.044 ± 0.32 | 1288.1 ± 1.4 | 2.695 ± 0.029
308.15 K, x1 = 0.5731 | 930.8 ± 0.28 | 1272.9 ± 1.4 | 2.021 ± 0.024
308.15 K, x1 = 0.6619 | 955.749 ± 0.24 | 1260.8 ± 1.4 | 1.597 ± 0.021
308.15 K, x1 = 0.7456 | 982.146 ± 0.2 | 1249.5 ± 1.4 | 1.273 ± 0.018
308.15 K, x1 = 0.8174 | 1007.56 ± 0.19 | 1240.8 ± 1.4 | 1.045 ± 0.016
308.15 K, x1 = 0.8857 | 1034.75 ± 0.24 | 1234.6 ± 1.4 | 0.868 ± 0.015
308.15 K, x1 = 0.9426 | 1060.08 ± 0.28 | 1231 ± 1.4 | 0.756 ± 0.014
308.15 K, x1 = 1 | 1089.08 ± 0.32 | 1230.9 ± 1.4 | 0.677 ± 0.014
313.15 K, x1 = 0.1664 | 841.509 ± 0.41 | 1308.6 ± 1.4 | 4.751 ± 0.046
313.15 K, x1 = 0.322 | 869.536 ± 0.37 | 1288.1 ± 1.4 | 3.323 ± 0.035
313.15 K, x1 = 0.4609 | 898.972 ± 0.32 | 1269.1 ± 1.4 | 2.388 ± 0.027
313.15 K, x1 = 0.5731 | 926.509 ± 0.28 | 1253.3 ± 1.4 | 1.816 ± 0.022
313.15 K, x1 = 0.6619 | 951.271 ± 0.25 | 1241.1 ± 1.4 | 1.454 ± 0.019
313.15 K, x1 = 0.7456 | 977.488 ± 0.21 | 1230.1 ± 1.4 | 1.156 ± 0.017
313.15 K, x1 = 0.8174 | 1002.68 ± 0.18 | 1222.1 ± 1.4 | 0.968 ± 0.016
313.15 K, x1 = 0.8857 | 1029.64 ± 0.23 | 1216.5 ± 1.4 | 0.809 ± 0.015
313.15 K, x1 = 0.9426 | 1054.84 ± 0.27 | 1213.4 ± 1.4 | 0.702 ± 0.014
313.15 K, x1 = 1 | 1083.66 ± 0.31 | 1212.6 ± 1.4 | 0.617 ± 0.013

Clc1ccccc1 [chlorobenzene] + CCCCCCCCCO
x1 = 1
Conditions | mass density [kg/m3] | speed of sound [m/s] | viscosity [mPa·s]
298.15 K | 1100.67 ± 0.34 | 1268 ± 1.4 | 0.757 ± 0.014
303.15 K | 1095.1 ± 0.33 | 1249.4 ± 1.4 | 0.714 ± 0.014
308.15 K | 1089.08 ± 0.32 | 1230.9 ± 1.4 | 0.677 ± 0.014
313.15 K | 1083.66 ± 0.31 | 1212.6 ± 1.4 | 0.617 ± 0.013
